# Measured values published in patent US7795305B2, “CDDO-compounds and combination therapies thereof” (Board of Regents, The University of Texas System, priority 2000, dated 2010).
# What was measured:
# [1] = system: Bcl-2 in CD34+ cells of primary AML; experiment: Bcl-2 expression level in CD34+ cells of primary AML samples; type: cell-based, human
# [2] = system: wt-PPARγ-transfected D9 cells; experiment: Annexin V / cell number in wt-PPARγ-transfected D9 cells; type: cell-based
# Procedure: Annexin V staining. Cells were washed in phosphate-buffered saline (PBS) and resuspended in 100 μl of binding buffer containing Annexin V (Roche Diagnostic Corporation, Indianapolis, Ind.). Cells were analyzed by flow cytometry after the addition of propidium iodide (PI). Annexin V binds to those cells that express phosphatidylserine on the outer layer of the cell membrane, and PI stains the cellular DNA of those cells with a compromised cell membrane. This allows for live cells (unstained with either fluorochrome) to be discriminated from apoptotic cells (stained only with annexin V) and necrotic cells (stained with both annexin and PI).
# (§1) To characterize the correlation between PPARγ and caspase activation, caspase-3 levels in D9 cells transfected with wt-PPARγ were analyzed. Six different single cell-derived clones were treated with 3 μM CDDO or vehicle controls for 5 hrs. Caspase-3 cleavage was analyzed by Western blot. A decrease in pro-caspase-3 with appearance of the cleaved product was readily observed in all clones. The degree of cleavage was higher in PPARγ-transfected than in vector control cells that express endogenous PPARγ. […] These changes correlated with plasma membrane changes: vector control=47.0% annexin V-positive cells; wt-PPARγ-transfected cells=73.3±1.1% annexin V (+), n=6. […] PPARγ-transfected cells were also more sensitive to PPARγ-ligand 15d-PGJ2 (41.00% vs 16.0% annexin (+) cells at 3 μM).
# as §1, with “(41.0%” for “(41.00%”
# The sensitivity of leukemic cells that overexpress PPARγ to CDDO-induced killing was tested. Vector control (pcDNA) or wt-PPARγ-transfected D9 cells (2 different clones) were treated 0.2 μM of CDDO for 48 hrs. Cell viability was assessed by cell count after Trypan blue exclusion, and apoptosis determined by PS/annexin V/Propidium Iodide (PI) flow cytometry. Leukemic cells transfected with PPARγ expressed 2.8-3.7-fold higher amounts of protein compared with vector controls. […] Importantly, CDDO increased PPARγ expression in both, vector control and transfected cells. […]
# ERK1/2 in U937 cells = experiment: ERK1/2 phosphorylation, Western blot; type: cell-based, human; details: 1 μM, 3 hours
# Procedure: Western blot analysis. An equal amount of protein lysate was placed on 12% SDS-PAGE for 2 hours at 100 volts, followed by transfer of the protein to a Nytran membrane (S&S, Heween, N.H.) and immunoblotting. Polyclonal rabbit antibodies to Bcl-2, Bcl-XL, and Bax were kindly provided by Dr. J. C. Reed. Antibodies against PARP was obtained from PharMingen (San Diego, Calif.), DFF-45 from Oncogene (Cambridge, Mass.), XIAP from Transduction Laboratories (Lexington, Ky.), caspase-3 from PharMingen, phospho-specific anti-pERK1/2 antibodies from Calbiochem (San Diego, Calif.). A specific antibody recognizing only the p20-processed caspase-3 band was provided by Idun Pharmaceutical, Inc. (La Jolla, Calif.).
# Since PKC-α and the MAP kinases ERK1 (p44) and ERK2 (p42) have been identified as physiologic Bcl-2 kinases, studies were performed to assess their activation status. […] However, both ERK1 and ERK2 were prominently detected in the mitochondrial membranes. […] Treatment of K562 cells with 1 μM of CDDO-Me in vivo abrogated ERK kinase activity similar to specific MEK inhibitor […]. No effect on Akt activity was seen. These findings indicate that CDDO-Me induces apoptosis by inhibition of ERK1/2 and Bcl-2 phosphorylation.
# U937/wt = experiment: Viability of Bcl-2 transfectants; type: cell-based, human; details: 0.1 μM
# Text: Cell lines. HL-60, KG-1, U937, and Jurkat cell lines were obtained from the American Type Culture Collection (Rockville, Md.). NB4 cells were kindly provided by Dr. M. Lanotte. HL-60-doxorubicin-resistant cells (HL-60-DOX) were also used. U937/Bcl-2 and its appropriate vector controls (U937/pCEP) were provided by Dr. S. Grant. U937 cells were transfected with WT, S70A, or S70E cDNA containing cytomegalovirus plasmids by electroporation (200 V, 975 μF capacitance) and selected and maintained in the medium plus 500 μg/mL G418 (Gibco BRL, Gaithersburg, Md.)
# The effect of CDDO-Me on Bcl-2 phosphorylation was further investigated by performing metabolic labeling studies with ^32P-orthophosphoric acid. […] To further investigate mechanisms of inhibition of Bcl-2 phosphorylation that could may a role in CDDO-Me-induced cell death, the inventors selected U937 cells that were stably transfected with a serine 70→alanine, Bcl-2 mutant (S70A).
# [3] = Murine model of angiogenesis, invasion promoted by ALL BM plasma; type: in vivo; details: 0.5 μM, n=8
# Procedure: CDDO-Me. The formation of tube-like endothelial structures that are associated with angiogenesis was analyzed using a Matrigel system (Kubota et al., 1988). Capillary-like structure formation of bone marrow endothelium was inhibited by CDDO-Me. […] Furthermore, in a murine model of angiogenesis, angiogenic invasion promoted by ALL BM plasma was abrogated by CDDO-Me at 0.5 μM (n=8). Thus, CDDO-Me also has anti-angiogenic effects.
SMILES,primary AML samples with significantly decreased Bcl-2 expression level in CD34+ cells [1],"annexin V (+) cells ([2]; 3 μM (CDDO: 5 hrs, n=6)) [%]",cell number decreased by ([2]; 3 μM CDDO) [%],"higher sensitivity compared to vector-control cells ([2]; all six single cell-derived subclones, 0.2 μM CDDO, 48 hrs) [%]",activation of ERK1/2 (ERK1/2 phosphorylation) (ERK1/2 in U937 cells),viable cells (U937/wt) [%],angiogenic invasion promoted by ALL BM plasma [3]
"CC1(C)CCC2(C(=O)O)CCC3(C)C(C(=O)C=C4C5(C)C=C(C#N)C(=O)C(C)(C)C5CCC43C)C2C1 (stereo not shown) [CDDO, 2-cyano-3,12-dioxoolen-1,9-dien-28-oic acid]",9 of 18,73.3±1.1,48.8±12.4,> 50,,,
COC(=O)[C@]12CCC(C)(C)C[C@H]1[C@H]1C(=O)C=C3[C@@]4(C)C=C(C#N)C(=O)C(C)(C)[C@@H]4CC[C@@]3(C)[C@]1(C)CC2 [CDDO-Me],,,,,blocked the activation of ERK1/2,30,abrogated
